Data: US20190142829A1, “AMELIORATION OF ANGELMAN'S SYNDROME DEFICIENCIES” (Neuralstem, Inc., priority 2017, published 2019)

What was measured:
[1] = test system: wild type mice; assay: LTP assay on post-mortem hippocampal slices after in vivo dosing, wild type mice; conditions: 30 mg/kg phosphate salt i.p. daily for 18 days, FIG. 2
Protocol: (§1) Four groups (n=4/5 per group) of young adult mice (age ˜3 months) were administered 30mg/kg of the phosphate salt of NSI-189 i.p. daily for 13-15 days for behavior assays and for 18 days prior to termination followed by in vitro LTP assays or administered only vehicle. The groups included • (1) mice with Angelman syndrome (AS) treated with NSI-189, • (2) mice with Angelman syndrome (AS) treated with vehicle, • (3) wild-type littermates treated with NSI-189, and • (4) wild-type littermates treated with vehicle.

[2] = test system: hippocampal brain slices prepared from young adult Angelman mice; assay: LTP in hippocampal brain slices treated in vitro, Angelman mice; type: cell-based; conditions: slices from Angelman mice (maternal Ube3A deletion); transient treatment for 3.5 hours; Liu et al, SfN Abstract 2016
Source text: Further, in a mouse model of Angelman syndrome, carrying the same maternal Ube3A deletion affected in human AS patients, the normal LTP is absent.

[3] = test system: mice with Angelman syndrome (AS); assay: Fear-conditioning test, mouse model of Angelman syndrome; type: in vivo; conditions: 30 mg/kg phosphate salt i.p. daily, 2 weeks, vs vehicle, p<0.01, FIG. 1
Protocol: as §1
The behavior assay conducted was fear-conditioning test as diagnostic of hippocampal memory function.

[4] = test system: hippocampal slices from normal, healthy, young adult mice (field CA1); assay: LTP elicited by theta burst stimulation in hippocampal slices treated in vitro, normal mice; type: cell-based; conditions: 100 nM to 10 μM for up to 3.5 h before theta burst stimulation, applicant's work, Liu et al, SfN Abstract 2016
Protocol: In work by applicant, hippocampal slices from normal, healthy, young adult mice were treated with various concentrations of NSI-189 (100 nM to 10 μM) for various times up to 3.5 h, before applying theta burst stimulation (TBS) to elicit long-term potentiation (LTP) in field CA1.

[5] = test system: mice with Angelman syndrome (AS); assay: LTP assay on post-mortem hippocampal slices after in vivo dosing, AS mice; conditions: 30 mg/kg phosphate salt i.p. daily for 18 days, vs vehicle, p<0.05, FIG. 2
Protocol: as §1

[6] = test system: AS mice; assay: Wire hang test (Hanging Wire test), AS mice; type: in vivo; conditions: phosphate i.p. over 21 days: D1-D7 3, D8-D14 10, D15-D21 30 mg/kg, maximum 120 sec, ultimately matched wild type, FIG. 3
Protocol: The wire hang test evaluates muscle strength as well as motor coordination. The set up includes a wire (0.2 cm in diameter×54.5 cm in length) stretched horizontally between two poles and elevated from a padded surface. The test starts when the mouse hangs onto the wire from its two forelimbs and lasts for 120 sec maximum. The time before falling, or the maximum score of 120 sec if no fall occurred, is recorded for each animal.
Four groups 5 mice for each group were used. Controls were administered vehicle and test groups were administered NSI-189 phosphate i.p. over 21 days as follows: D1-D7—3 mg/kg NSI-189 phosphate; D8-D14—10 mg/kg NSI-189 phosphate; D15-D21—30 mg/kg NSI-189 phosphate.
As shown, the AS mice administered only vehicle were not able to hang onto the wire for more than about 20 seconds, whereas AS mice treated with NSI-189 ultimately matched the times of wild type mice at about 100 seconds.

SMILES: CC(C)CCNc1ncccc1C(=O)N1CCN(Cc2ccccc2)CC1.O=P(O)(O)O [NSI-189]
- LTP in post-mortem hippocampal slices [1]: improved
- effect on LTP activity [2]: restore the LTP activity to normal level
- freezing time following ring-tone (memory deficit) [3]: memory deficit was diminished
- effect on long-term potentiation (LTP) in field CA1 [4]: statistically significant enhancement of the normal LTP level
- LTP in post-mortem hippocampal slices [5]: restoration of LTP
- time before falling (hanging on the wire) [6]: about 100 seconds
